The test system of data set [1] is KRAS G12D-dependent Ba/F3 cells. Nature of the data set: Ba/F3 proliferation assay, KRAS G12D. It is filed as cell-based. The note with it: Mus musculus, BaF3, 72 h, AlamarBlue. How it is done:
Plasmids containing KRASG12 mutants (i.e. […], G12C, G12V) are obtained from GeneScript. To generate KRASG12-dependent Ba/F3 models, Ba/F3 cells are transduced with retroviruses containing vectors that harbor KRASG12 isoforms. Platinum-E cells (Cell Biolabs) are used for retrovirus packaging. Retrovirus is added to Ba/F3 cells. To ensure infection, 4 μg/mL polybrene is added and cells are spinfected. […] Cells with an infection efficiency of 10% to 20% are further cultivated and puromycin selection with 1 μg/mL is initiated. As a control, parental Ba/F3 cells are used to show selection status. Selection is considered successful when parental Ba/F3 cells cultures died. To evaluate the transforming potential of KRASG12 mutations, the growth medium is no longer supplemented with IL-3. Ba/F3 cells harboring the empty vector are used as a control. Approximately ten days before conducting the experiments, puromycin is left out.
Compounds are added using an Access Labcyte Workstation with a Labcyte Echo 550 or 555 accoustic dispenser. All treatments are performed in technical duplicates. […] AlamarBlue™ (ThermoFisher), a viability stain, is added and fluorescence measured in the PerkinElmer Envision HTS Multilabel Reader. The raw data are imported into and analyzed with the Boehringer Ingelheim proprietary software MegaLab (curve fitting based on the program PRISM, GraphPad Inc.).

In a further data set the test system is SAS cells. Nature of the data set: SAS CTG proliferation assay (120 h) (HNSCC, wt amplified). It is filed as cell-based. How it is done: SAS CTG Proliferation Assay (120 h) (HNSCC, Wt Amplified)
SAS cells (JCRB0260) are dispensed into 384-well plates, flat and clear bottom (Greiner, PNr. 781091) at a density of 300 cells per well in 60 μL DMEM:F12 (Gibco 31330-038)+10% Fetal Calf Serum (HyClone, PNr.: SH30084.03) and incubated at 37° C. in a CO2 incubator overnight. The next day, compounds (10 mM stock in DMSO) are added with the ECHO acoustic liquid handler system (Beckman Coulter), including DMSO controls. Plates are incubated for 120 h, and cell viability is measured using CellTiter-Glo luminescent cell viability reagent (Promega product code G7570). Viability (stated as percent of control) is defined as relative luminescence units RLU of each well divided by the RLU of cells in DMSO controls. IC50 values are determined from viability measurements by non-linear regression using a four-parameter model.

A further data set has as its system AsPC-1 cells. The data set can be described thus: AsPC-1 CTG proliferation assay (120 h) (pancreatic cancer, G12D). It is filed as cell-based. The conditions noted are these: Homo sapiens, ASPC1. How it is done: AsPC-1 CTG Proliferation Assay (120 h) (Pancreatic Cancer, G12D)
The CTG assay is designed to measure quantitatively the proliferation of AsPC-1 cells (ATCC […]), using the CellTiter Glow Assay Kit (Promega G7571). Cells are grown in RPMI medium (ATCC) supplemented with Fetal Calf Serum (Life Technologies, Gibco BRL, Cat. No. 10270-106). On “day 0” 2000 AsPC-1 cells are seeded in 60 μL RPMI ATCC+10% FCS+Penstrep in a 384-well plate, flat and clear bottom (Greiner, PNr. 781091). Cells are then incubated in the plates at 37° C. in a CO2 incubator overnight. On day 1, compounds (10 mM stock in DMSO) are added with the ECHO acoustic liquid handler system (Beckman Coulter), including DMSO controls. Plates are incubated for 120 h, and cell viability is measured using CellTiter-Glo luminescent cell viability reagent (Promega product code G7570). Viability (stated as percent of control) is defined as relative luminescence units RLU of each well divided by the RLU of cells in DMSO controls. IC50 values are determined from viability measurements by non-linear regression using a four-parameter model.

Another data set concerns NCI-H358 cells. The data set can be described thus: NCI-H358 CTG proliferation assay (120 h) (NSCLC, G12C). In kind it is cell-based, human. The conditions noted are these: Homo sapiens. How it is done:
NCI-H358 CTG Proliferation Assay (120 h) (NSCLC, G12C)
NCI-H358 cells (ATCC No. CRL-5807) are dispensed into white bottom opaque 96 well plates (Perkin Elmer cat no. 5680) at a density of 2000 cells per well in 100 μL RPMI-1640 ATCC-Formulation (Gibco #A10491)+10% FCS (fetal calf serum) (assay 1) or into black 384-well plates, flat and clear bottom (Greiner, PNr. 781091) at a density of 200 cells per well in 60 μl RPMI-1640 ATCC-Formulation (Gibco #A10491)+10% FCS (fetal calf serum) (assay 2). […] Compounds (10 mM stock in DMSO) are added at logarithmic dose series using the HP Digital Dispenser D300 (Tecan) (assay 1) or the ECHO acoustic liquid handler system (Beckman Coulter) (assay 2), normalizing for added DMSO and including DMSO controls. For the TO time point measurement, untreated cells are analyzed at the time of compound addition. Plates are incubated for 120 h, and cell viability is measured using CellTiter-Glo luminescent cell viability reagent (Promega product code G7570). Viability (stated as percent of control) is defined as relative luminescence units RLU of each well divided by the RLU of cells in DMSO controls. IC50 values are determined from viability measurements by non-linear regression using a four parameter model.

A short description of data set [2]: Caco-2 assay (permeability PappAB, PappBA, efflux ratio). The note with it: human, Caco-2, 10 μM test compound, pH 7.4; for Papp A→B at 90 min, 10 μM: apical to basolateral; for efflux ratio at 90 min, 10 μM: efflux ratio PappBA/PappAB, read-out: Caco ER. In kind it is in vitro ADME. The text has this: The assay provides information on the potential of a compound to pass the cell membrane, on the extent of oral absorption as well as on whether the compound is actively transported by uptake and/or efflux transporters. Permeability measurements across polarized, confluent Caco-2 cell monolayers grown on permeable filter supports (Corning, catalog #3391) are used. […] The receiver and donor compartments contain 0.25% bovine serum albumine (BSA) in assay buffer. Passive diffusion and/or active transport of compounds across the monolayer is measured in both apical to basolateral (a-b) and basolateral to apical (b-a) direction. a-b permeability (PappAB) represents drug absorption from the intestine into the blood and b-a permeability (PappBA) drug secretion from the blood back into the intestine via both passive permeability as well as active transport mechanisms mediated by efflux and uptake transporters that are expressed on the Caco-2 cells. After a pre-incubation of 25-30 min at 37° C., at predefined time points (0, 30, 60 and 90 min), samples were taken from the receiver and donor compartment, respectively. Concentrations of test compounds in samples were measured by HPLC/MS/MS, samples from the donor compartment were diluted 1:50 (v:v) with assay buffer, samples from receiver compartment were measured without dilution.
Apparent permeabilities in a-b (PappAB) and b-a (PappBA) directions are calculated according to the formula:
[formula] • Vrec [mL]: buffer volume in receiver compartment • Cdon [μmol/mL]: concentration of test compound in donor compartment at t=0 • ΔCrec: difference between concentrations of test compound in receiver compartment at start and end of incubation time • Δt: Incubation time • Vrec·ΔCrec/Δt [μmol/min]: Amount of compound transferred to receiver compartment per time • A [cm^2]: filter surface
Caco-2 efflux ratios (ER) are calculated as the ratio of PappBA/PappAB.

Where [3] appears, read: assay 1, CTG, read-out: H358 (assay 1) IC50.
Setting [4] is: assay 2, CTG, read-out: H358 (assay 2) IC50.

Structures are written as SMILES. Like-named read-outs stand apart in the source and are kept apart here.

For the compound `C[C@H](Oc1cc(N2CCOC3(COC3)C2)nc(-c2noc3c2CCC[C@@]32CCCc3sc(N)c(C#N)c32)n1)[C@@H]1CCCN1C` [II-77], the concentration for half-maximal inhibition (IC50) in data set [1] was found to be 28 nM; in the data set with SAS cells it was 152 nM; with AsPC-1 cells it was 738 nM; with NCI-H358 cells (setting [3]) it was 51 nM; in the data set with NCI-H358 cells (setting [4]), 9 nM.
For the compound `C[C@H](Oc1cc(N2CCOC3(CC3)C2)nc(-c2noc3c2CCC[C@@]32CCCc3sc(N)c(C#N)c32)n1)[C@@H]1CCCN1C` [II-61], the half-inhibitory concentration (IC50) in data set [1] turned out to be 55 nM; with SAS cells, 169 nM; in the data set with AsPC-1 cells, 1550 nM; with NCI-H358 cells (setting [4]), 1420 nM.
Take `C[C@H](Oc1cc(N2C[C@H](C)NC3(CC3)C2)nc(-c2onc3c2CCC[C@@]32CCCc3sc(N)c(C#N)c32)n1)[C@@H]1CCCN1C` [I-8]: the concentration for half-maximal inhibition (IC50) in data set [1] was 4 nM; with SAS cells it was 131 nM; with AsPC-1 cells it was 512 nM; in the data set with NCI-H358 cells (setting [3]) it was 874 nM.
Regarding `CO[C@@H]1C[C@@H]([C@H](C)Oc2cc(-c3ccn(C4COC4)n3)nc(-c3noc4c3CCC[C@@]43CCCc4sc(N)c(C#N)c43)n2)N(C)C1` [II-107], the IC50 came out at 19 nM in data set [1], 7 nM in the data set with SAS cells and 7270 nM in the data set with AsPC-1 cells. Besides, the apparent permeability from apical to basolateral (Papp A→B) at 90 min, 10 μM in data set [2] came to 10 ×10⁻⁶ cm/s. Further, in data set [2], the efflux ratio at 90 min, 10 μM worked out at 2.4.
`C[C@H](Oc1cc(N2CCCC3(COC3)C2)nc(-c2noc3c2CCC[C@@]32CCCc3sc(N)c(C#N)c32)n1)[C@@H]1CCCN1C` [II-72]: the IC50 stood at 39 nM in data set [1], 206 nM with SAS cells, 783 nM in the data set with AsPC-1 cells and 9 nM in the data set with NCI-H358 cells (setting [4]).
The like results for `C[C@H](Oc1cc(N2Cc3cnn(C)c3C2)nc(-c2noc3c2CCC[C@@]32CCCc3sc(N)c(C#N)c32)n1)[C@@H]1CCCN1C` [II-63] were, in that order, 266 nM, 1310 nM, 3300 nM and 66 nM.
On to `CO[C@@H]1C[C@@H]([C@H](C)Oc2cc(-c3cnn(C)n3)nc(-c3noc4c3CCC[C@@]43CCCc4sc(N)c(C#N)c43)n2)N(C)C1` [II-62], for which the figures for the half-inhibitory concentration (IC50) (in data set [1]; with SAS cells; with AsPC-1 cells) were 39 nM, 50 nM and 9190 nM, respectively. Further, in data set [2], the Papp A→B at 90 min, 10 μM amounted to 19 ×10⁻⁶ cm/s. Besides, the efflux ratio at 90 min, 10 μM in data set [2] was 0.3.
For `C[C@H](Oc1cc(-n2ccncc2=O)nc(-c2noc3c2CCC[C@@]32CCCc3sc(N)c(C#N)c32)n1)[C@@H]1CCCN1C` [II-116], the IC50 was 30 nM in data set [1], 2010 nM in the data set with SAS cells and 6520 nM in the data set on AsPC-1 cells.
The like results for `Cc1nccn1-c1cc(O[C@@H](C)[C@@H]2CCCN2C)nc(-c2noc3c2CCC[C@@]32CCCc3sc(N)c(C#N)c32)n1` [II-79] were, in that order, 45 nM, 2590 nM and 2830 nM.
In turn, `C[C@H](Oc1cc(-c2cn(C3CCOCC3)nn2)nc(-c2noc3c2CCC[C@@]32CCCc3sc(N)c(C#N)c32)n1)[C@@H]1CCCN1C` [II-115] yielded an IC50 in data set [1] of 131 nM.
With `Cc1nc(-c2cc(O[C@@H](C)[C@@H]3CCCN3C)nc(-c3noc4c3CCC[C@@]43CCCc4sc(N)c(C#N)c43)n2)cs1` [II-103], the IC50 in data set [1] was 21 nM.
For `C[C@H](Oc1cc(-c2cncs2)nc(-c2noc3c2CCC[C@@]32CCCc3sc(N)c(C#N)c32)n1)[C@@H]1CCCN1C` [II-80], the IC50 was 41 nM in data set [1], more than 25000 nM with SAS cells and 5080 nM in the data set with AsPC-1 cells.
The like results for `C[C@H](Oc1cc(N2CCCC2=O)nc(-c2noc3c2CCC[C@@]32CCCc3sc(N)c(C#N)c32)n1)[C@@H]1CCCN1C` [II-73] were, in that order, 16 nM, 33 nM and 1810 nM.
For `C[C@H]1CN(C)CCCN1c1cc(N2CCN(C)CC2)nc(-c2onc3c2CCC[C@@]32CCCc3sc(N)c(C#N)c32)n1` [I-7] the same measures were 190 nM, 472 nM and 2370 nM.
On to `C[C@H](Oc1cc(-c2ccn3ncnc3c2)nc(-c2noc3c2CCC[C@@]32CCCc3sc(N)c(C#N)c32)n1)[C@@H]1CCCN1C` [II-104], for which the IC50 in data set [1] turned out to be 78 nM; in the data set with SAS cells, 114 nM; in the data set on NCI-H358 cells (setting [4]), 391 nM. Also, in data set [2], the efflux ratio at 90 min, 10 μM amounted to 4.2.
With `C[C@H](Oc1cc(N2CCNCC23CCOC3)nc(-c2onc3c2CCC[C@@]32CCCc3sc(N)c(C#N)c32)n1)[C@@H]1CCCN1C` (stereo partly shown) [I-10], the IC50 came to 9 nM in data set [1] and 200 nM in the data set with NCI-H358 cells (setting [4]). The Papp A→B at 90 min, 10 μM in data set [2] is less than 2.1 ×10⁻⁶ cm/s.
For the compound `C[C@H](Oc1cc(-c2cn(C3COC3)nn2)nc(-c2noc3c2CCC[C@@]32CCCc3sc(N)c(C#N)c32)n1)[C@@H]1CCCN1C` [II-100], the IC50 in data set [1] came out at 56 nM; in the data set on SAS cells it was 3180 nM; in the data set on AsPC-1 cells, 9770 nM.
Regarding `C[C@H](Oc1cc(-c2ccn(C3COC3)n2)nc(-c2noc3c2CCC[C@@]32CCCc3sc(N)c(C#N)c32)n1)[C@@H]1C[C@H](F)CN1C` [II-83], the IC50 in data set [1] was 33 nM; in the data set on SAS cells, 18 nM; in the data set on AsPC-1 cells, 5130 nM.
As for `C[C@H](Oc1cc(-n2ccc(C#N)n2)nc(-c2noc3c2CCC[C@@]32CCCc3sc(N)c(C#N)c32)n1)[C@@H]1CCCN1C` [II-102], the 50% inhibitory concentration (IC50) turned out to be 14 nM in data set [1], 71 nM with SAS cells and 2770 nM in the data set with AsPC-1 cells.

The record behind these values is US20240174690A1, “ANNULATED 2-AMINO-3-CYANO THIOPHENES AND DERIVATIVES FOR THE TREATMENT OF CANCER” (BOEHRINGER INGELHEIM INTERNATIONAL GMBH, priority 2021, published 2024).
